According to patent publication US20080145343A1, “Conjugates of biologically active compounds, methods for their preparation and use, formulation and pharmaceutical applications thereof” (priority 2002, published 2008):
Like-named read-outs stand apart in the source and are kept apart here.

What was measured:
white blood cells = assay: Immune cell selective uptake from blood cell mix (immune selectivity ratio method); format: cell-based, mammalian
Experimental: Freshly drawn heparinised blood or buffy coat preparations are used for the determination of immune cell partition ratios. Buffy coat preparations are preferred. These may be obtained from donor blood by simple centrifugation of whole blood (4795 g for 10 minutes). Following centrifugation, plasma is collected from the surface, after which immune cells are expressed from the donor bags along with the erythrocytes lying immediately below the leukocyte layer. This ensures high yields and a sufficient population of erythrocytes for partition. 5 ml of the resulting cell suspension are dispensed into T25 culture flasks. Substrates are added to a final concentration between 1 and 10 μM and the suspensions incubated at 37° C., in a 5% CO2 atmosphere. For analysis of uptake kinetics, samples are withdrawn at 0, 2, 5, 10, 30, 60, 90, 180, or 240 min after substrate addition. For screening purposes, samples are taken at 0 and 120 minutes. […]
Uptake of fluorescent compounds is monitored using fluorescence microscopy. Excitation and emission wavelengths depend of the fluorescence label in use. […]
Cell lysates are analysed using a HP 1100 HPLC System (Agilent Technologies, Waldbronn, Germany) with a Kromasil 3.5μ C18, 50×2.0 mm column and guard cartridge system (both, Phenomenex, Aschaffenburg, Germany) run at 30° C. […]
Masses are monitored according to the known or expected M/Z ratios. […]

E. coli (DH5α) = assay: Testing of antibiotic activity (TC50, dilution assay, turbidity); format: cell-based; settings: concentration that inhibits 50% of the growth
Experimental: The TC50 or MIC procedure for antibiotic sensitivity testing involves an antibiotic dilution assay, which can be performed in microtitre plates. A series of twofold dilutions of each antibiotic are made in the wells, and then all wells are inoculated with a standard amount of the same test organism. After incubation, growth in the presence of the various antibiotics is observed by measuring turbidity.
Bacteria: B. pumilus and E. coli (DH5α) Bacterial cultures are initiated from the plates for 2 to 3 weeks. After this time period bacteria are streaked out on new plates from the backups stored at −80° C. Due to the lack of resistance of the bacteria, new cultures are not to be initiated from an old plate or any liquid cultures derived from old plates. Growth medium (GM) (per liter): 10 g Bacto-tryptone, 5 g Bacto-yeast extract, 6 g HEPES (25 mM), 5.4 g NaCl, pH 7.3 Compound stocks 10 or 100 mM in DMSO stored at −20° C.
• 1. Grow B. pumilus from an LB agar plate in a flask (max. 10% volume) up to about 50 ml in growth medium (GM) • 2. Dilute overnight suspension 1:10 in GM • 3. Determine OD600 of diluted bacterial suspension • 4. Dilute bacterial suspension in GM to an OD600 of 0.03-0.04. (6 ml/plate) • 5. Add 200 μl GM to the outer wells (Row A, Row H, Column 1, Column 12) • 6. Add 100 μl GM to each well starting from C2, row 3. • 7. Controls: Wells B2-B4 growth control. Wells B6-B8 blank. Row C growth inhibition control. • 7.1. To wells B2-B4 add: 96 μl GM, 4 μl DMSO, and 100 μl bacterial suspension adjusted to an OD600 of 0.03-0.04. • 7.2. To wells B6-B8 add: 196 μl GM and 4 μl DMSO • 7.3. Dilute a 10 mM Compound 43 (positive control) stock to 800 μM (120 μl/plate) in GM. Add 100 μl of 800 μM Compound 43 solution to well C2. • 8. Samples • 8.1. Dilute the 10 or 100 mM stock solutions to 800 μM (250 μl/plate) in GM. • 8.2. Add 100 μl of 800 μM sample in duplicates to wells D2/E2 resp. F2/G2. • 8.3. 2-fold serial dilution of all samples and Azithromycin • 8.3.1. Rows C-G, Columns 2: Mix and transfer 100 μl from each row to Column 3, and continue until column 11. The remaining 100 μl out of column 11 are disposed. • 9. Add 100 μl of bacterial suspension (OD600 0.03-0.04) to each well from C2-G11. • 10. Incubate plates on shaker, 750 rpm, 37° C., until the growth controls have reached an OD600 of 0.6-0.8 (approximately 6-8 h).
11. Determine OD600 on plate reader.

lymphocytes = assay: Proliferation assay (BrdU ELISA, phytohemagglutanin-stimulated); format: cell-based, mammalian; settings: for Ratio (2 h:72 h): IC50 at 2 h : IC50 at 72 h, lower = better uptake and release; for IC50: Lymphocyte
Text: Assay to determine the in vitro rate of, for example, lymphocyte proliferation. Lymphocytes are purified out of ant coagulated (CPDA, citrate or heparin) mammalian blood using the Lymphoprep™ system (supplier). Purified cells are counted using a hemocytometer following Trypan Blue staining, and a cell concentration of 1×10^6 cells/ml established in RPMi 1640 medium with 10% FCS and antibiotics as required (all from Biochrome). Following the addition of a cell proliferation stimulant, for example phytohemagglutanin (Sigma) at, for example an end concentration of 5 μg/ml, the cells are incubated with different concentrations of the to be investigated compound in 100 μl end volume in a 96-well microtiter plate in an incubator (37° C., 5% CO2, 95% humidity) for 72 h. Cell proliferation is quantified following BrdU incorporation for 16 h by ELISA and subsequent calorimetric development (Cell Proliferation ELISA BrdU (colorimetric) kit from Roche Diagnostics). The IC50 (μM) values are then calculated, and used to compare compound efficacy.
To determine the influence of the T-L-C modification on in vitro cellular drug uptake and pharmacology, the above assay is additionally modified and an additional “wash” step included. In addition to running the assay for 72 h with the compounds to be tested, the assay is also run for just 2 h, then compound is washed away in three serial washing steps using 200 μl of medium at each step, and the cells subsequently incubated for a further 70 h. […] The lower the number, the better the uptake and drug release from the T-L-C in the cells (see results in Table 4 for examples), and improvement over mycophenolic acid.

HeLa or JURKAT = assay: Cytotoxicity assay (Alamar Blue) with guanosine rescue; format: cell-based
Experimental: HeLa cells (DSMZ, ACC 57) and Jurkat cells (DSMZ, ACC 282) in exponential growth phase are exposed for 3 days to test compounds. The number of surviving cells is then determined by the Alamar Blue assay (Serotec Inc.). This assay incorporates a fluorometric growth indicator based on detection of metabolic activity. Specifically, the system incorporates an oxidation-reduction indicator that fluoresces in response to chemical reduction of the growth medium resulting from cell growth. As cells grow in culture, innate metabolic activity results in a chemical reduction of the immediate surrounding environment. Continued growth maintains a reduced environment while inhibition of growth maintains an oxidized environment. […] Fluorescence is monitored at 560 nm (Exc.) and 590 nm Em.
HeLa cells (1×10^3) or JURKAT cells (1×10^3) are plated in 100 μl MEM medium (with Earle's salt; Biochrom KG) containing 10% FBS, 2 mM L-glutamine, and non-essential animo acids in 96-well plates and incubated at 37° C. and 5% CO2 atmosphere. […] The fluorescence is then measured as described above and the LD50 is determined based on a sigmoidal dose response regression. […] Any toxicity still detected can then be ascribed either to other biological effects of the of T-L-C conjugate of mycophenolic acid, or is due to the very high intracellular concentration of mycophenolic acid, following concentrative uptake into the cell.

[1] = read-out: IC50 (μM) at 2 h, 2 h with compound, washed away, further 70 h incubation
[2] = 72 h incubation with compound, read-out: IC50 (μM) at 72 h

| SMILES | TC50 in E. coli (E. coli (DH5α)) [µM] | Ratio (2 h:72 h) (lymphocytes) | IC50 (lymphocytes; [1]) [µM] | IC50 (lymphocytes; [2]) [µM] | also measured |
| --- | --- | --- | --- | --- | --- |
| CC[C@H]1OC(=O)[C@H](C)[C@@H](OC2C[C@@](C)(OC)[C@@H](O)[C@H](C)O2)[C@H](C)[C@@H](OC2O[C@H](C)C[C@H](N(C)C)[C@H]2O)[C@](C)(O)C[C@@H](C)/C(=N/OCc2cc(=O)oc3cc(OC)c(OC)cc23)[C@H](C)[C@@H](O)[C@]1(C)O (some centres unmarked) [Compound 3] |  |  |  |  | intracellular distribution (white blood cells; polymorphonuclear cells, fluorescent image (FIG. 3)): even distribution with some concentration near the nucleus |
| COc1cc(C)c(/C(=C\C(C)=O)CC(N)C(=O)O)cc1OC (centres unmarked) [Compound 4] |  |  |  |  | uptake speed (white blood cells; fluorescent compounds, images during uptake): uptake is rapid |
| CC[C@H]1OC(=O)[C@H](C)C(=O)[C@H](C)[C@@H](O[C@@H]2O[C@H](C)CC(N(C)C)[C@H]2O)[C@](C)(O)C[C@@H](C)CN(C)[C@H](C)[C@@H](O)[C@]1(C)O (some centres unmarked) [Compound 40] | >50 |  |  |  |  |
| CC[C@H]1OC(=O)[C@H](C)[C@@H](O[C@H]2C[C@@](C)(OC)[C@@H](O)[C@H](C)O2)[C@H](C)[C@@H](O[C@@H]2O[C@H](C)C[C@H](N(C)C)[C@H]2O)[C@](C)(O)C[C@@H](C)CN(C)[C@H](C)[C@@H](O)[C@]1(C)O [Compound 43, 9a-aza-9a-methyl-9-deoxo-9a-homoerythromycin A, reference compound] | 2.3 |  |  |  |  |
| CC[C@H]1OC(=O)[C@H](C)[C@@H](O[C@H]2C[C@@](C)(OC)[C@@H](O)[C@H](C)O2)[C@H](C)[C@@H](O[C@@H]2O[C@H](C)CC(N(C)C(=O)CN(C)CCO)[C@H]2O)[C@](C)(O)C[C@@H](C)CN(C)[C@H](C)[C@@H](O)[C@]1(C)O (some centres unmarked) [Compound 45] | >50 |  |  |  |  |
| CC[C@H]1OC(=O)[C@H](C)C(=O)[C@H](C)[C@@H](O[C@@H]2O[C@H](C)C[C@H](N(C)C)[C@H]2OC(=O)Cc2ccccc2Nc2c(Cl)cccc2Cl)[C@](C)(O)C[C@@H](C)CN(C)[C@H](C)[C@@H](O)[C@]1(C)O [Compound 53] | >50 |  |  |  |  |
| CC[C@H]1OC(=O)[C@H](C)[C@@H](O[C@H]2C[C@@](C)(OC)[C@@H](O)[C@H](C)O2)[C@H](C)[C@@H](O[C@@H]2O[C@H](C)CC(N(C)C)[C@H]2OC(=O)CC/C(C)=C/Cc2c(O)c3c(c(C)c2OC)COC3=O)[C@](C)(O)C[C@@H](C)CN(C)[C@H](C)[C@@H](O)[C@]1(C)O (some centres unmarked) [Compound 67] |  | 1.3 | 1.74 | 1.36 |  |
| CCOC(=O)CC/C(C)=C/Cc1c(CC(=O)CCC(=O)O[C@@H]2C(N(C)C)C[C@@H](C)O[C@H]2O[C@@H]2[C@@H](C)[C@H](O[C@H]3C[C@@](C)(OC)[C@@H](O)[C@H](C)O3)[C@@H](C)C(=O)O[C@H](CC)[C@@](C)(O)[C@H](O)[C@@H](C)N(C)C[C@H](C)C[C@@]2(C)O)c2c(c(C)c1OC)COC2=O (some centres unmarked) [Compound 69] |  | 1.9 | 2.66 | 1.4 |  |
| CC[C@H]1OC(=O)[C@H](C)[C@@H](C)[C@H](C)[C@@H](O[C@@H]2O[C@H](C)C[C@@H](N(C)CCOC(=O)CC/C(C)=C/Cc3c(O)c4c(c(C)c3OC)COC4=O)[C@@H]2N(C)C)[C@](C)(O)C[C@@H](C)CN(C)[C@H](C)[C@@H](O)[C@]1(C)O [Compound 74] |  | 1.45 | 3.2 | 2.2 |  |
| COc1c(C)c2c(c(O)c1C/C=C(\C)CCC(=O)O)C(=O)OC2 [Mycophenolic acid] |  |  |  |  | effect in the presence of guanosine (HeLa or JURKAT; 50 μM guanosine): completely removed; IC50 (HeLa or JURKAT; normal culture conditions): < 2000 nM |
